The text below walks through data of patent publication US11912703B2, “6-azaindole compounds” (BRISTOL-MYERS SQUIBB COMPANY, priority 2017, dated 2024).

The structures appear in SMILES notation.

The target in one test is human TLR8 (Homo sapiens (Human), UniProt Q9NR97). The test is described as follows: TLR8 inhibition reporter assay (HEK-Blue SEAP).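 Also: SEAP driven by IFN-β minimal promoter with five NF-κB and AP-1 sites, compounds tested 0.05 nM to 50 µM, 22 h incubation, inhibition relative to agonist plus DMSO wells.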 The conditions noted are these: read-out: TLR8 IC50; HEK-Blue cells overexpressing human TLR8, R848 15.9 μM stimulation, SEAP reporter.
human TLR8, sequence (Q9NR97 27-1041): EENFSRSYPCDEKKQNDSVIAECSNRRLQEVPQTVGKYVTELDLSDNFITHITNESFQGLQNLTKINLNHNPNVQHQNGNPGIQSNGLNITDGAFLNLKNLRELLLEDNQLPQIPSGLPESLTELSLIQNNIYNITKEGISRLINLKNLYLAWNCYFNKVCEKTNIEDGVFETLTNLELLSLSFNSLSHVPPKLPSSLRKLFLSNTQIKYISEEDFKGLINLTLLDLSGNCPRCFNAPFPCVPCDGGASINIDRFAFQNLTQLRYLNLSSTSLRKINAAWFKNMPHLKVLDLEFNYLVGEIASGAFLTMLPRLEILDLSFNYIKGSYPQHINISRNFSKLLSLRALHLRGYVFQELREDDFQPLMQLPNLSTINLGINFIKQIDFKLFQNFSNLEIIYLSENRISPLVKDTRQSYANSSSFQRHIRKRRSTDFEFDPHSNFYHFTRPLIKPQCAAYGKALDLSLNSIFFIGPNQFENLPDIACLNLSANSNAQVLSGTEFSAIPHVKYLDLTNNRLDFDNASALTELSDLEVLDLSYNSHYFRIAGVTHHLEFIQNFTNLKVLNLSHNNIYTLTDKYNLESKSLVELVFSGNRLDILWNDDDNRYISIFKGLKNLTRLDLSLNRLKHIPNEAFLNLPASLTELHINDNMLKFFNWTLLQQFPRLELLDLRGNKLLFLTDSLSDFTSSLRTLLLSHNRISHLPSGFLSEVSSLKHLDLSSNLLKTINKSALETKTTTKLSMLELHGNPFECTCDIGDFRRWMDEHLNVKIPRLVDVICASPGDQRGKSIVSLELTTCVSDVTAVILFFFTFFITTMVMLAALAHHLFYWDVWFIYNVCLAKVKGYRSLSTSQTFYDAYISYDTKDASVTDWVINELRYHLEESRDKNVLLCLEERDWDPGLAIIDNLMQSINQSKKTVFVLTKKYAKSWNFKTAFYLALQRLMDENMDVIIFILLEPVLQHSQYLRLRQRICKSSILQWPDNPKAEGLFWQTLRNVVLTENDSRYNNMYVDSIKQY
The target in a further test is human TLR7 (Homo sapiens (Human), UniProt Q9NYK1). The test is described as follows: TLR7 inhibition reporter assay (HEK-Blue SEAP). In kind it is cell-based. The conditions noted are these: HEK-Blue cells overexpressing human TLR7, gardiquimod 7.5 μM stimulation. On the technique in general: A reporter such as luciferase makes a cellular process visible.
human TLR7, sequence (Q9NYK1 27-1049): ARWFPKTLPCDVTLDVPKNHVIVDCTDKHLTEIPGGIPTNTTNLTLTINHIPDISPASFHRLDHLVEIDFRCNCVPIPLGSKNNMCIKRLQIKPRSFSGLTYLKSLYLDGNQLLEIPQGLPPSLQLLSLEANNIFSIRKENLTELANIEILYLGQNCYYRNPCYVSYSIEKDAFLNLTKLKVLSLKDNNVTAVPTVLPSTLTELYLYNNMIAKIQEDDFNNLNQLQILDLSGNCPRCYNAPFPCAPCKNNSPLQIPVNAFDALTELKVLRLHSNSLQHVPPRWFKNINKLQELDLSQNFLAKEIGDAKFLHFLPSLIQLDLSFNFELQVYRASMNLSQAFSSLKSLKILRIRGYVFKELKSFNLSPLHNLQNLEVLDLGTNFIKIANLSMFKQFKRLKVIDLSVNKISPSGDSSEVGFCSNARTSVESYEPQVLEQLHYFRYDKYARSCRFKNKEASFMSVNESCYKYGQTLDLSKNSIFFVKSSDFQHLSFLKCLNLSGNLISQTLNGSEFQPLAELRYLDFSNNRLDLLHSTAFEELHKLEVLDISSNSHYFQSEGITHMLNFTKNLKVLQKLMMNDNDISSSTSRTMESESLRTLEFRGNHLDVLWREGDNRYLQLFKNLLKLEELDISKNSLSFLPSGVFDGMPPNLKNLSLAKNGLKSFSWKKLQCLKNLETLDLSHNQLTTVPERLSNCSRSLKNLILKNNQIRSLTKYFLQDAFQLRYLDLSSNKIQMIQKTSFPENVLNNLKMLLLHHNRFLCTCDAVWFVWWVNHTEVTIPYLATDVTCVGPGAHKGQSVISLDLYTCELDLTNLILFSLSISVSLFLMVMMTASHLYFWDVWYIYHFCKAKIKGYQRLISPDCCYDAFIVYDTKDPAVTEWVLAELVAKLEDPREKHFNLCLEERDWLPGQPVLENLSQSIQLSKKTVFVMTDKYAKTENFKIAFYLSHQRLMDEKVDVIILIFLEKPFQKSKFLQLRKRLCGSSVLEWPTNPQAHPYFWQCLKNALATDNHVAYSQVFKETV
Another test deals with human TLR9 (Homo sapiens (Human), UniProt Q9NR96). The test is described as follows: TLR9 inhibition reporter assay (HEK-Blue SEAP).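 Also: SEAP driven by IFN-β minimal promoter carrying five NF-κB and AP-1 sites, 22 h at 37 °C, compounds 0.05 nM–50 µM, inhibition scaled between agonist-plus-DMSO and reference-inhibitor wells.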 The conditions noted are these: read-out: TLR9 IC50; HEK-Blue cells overexpressing human TLR9, ODN2006 5 nM stimulation, SEAP reporter.
human TLR9, sequence (Q9NR96 26-1032): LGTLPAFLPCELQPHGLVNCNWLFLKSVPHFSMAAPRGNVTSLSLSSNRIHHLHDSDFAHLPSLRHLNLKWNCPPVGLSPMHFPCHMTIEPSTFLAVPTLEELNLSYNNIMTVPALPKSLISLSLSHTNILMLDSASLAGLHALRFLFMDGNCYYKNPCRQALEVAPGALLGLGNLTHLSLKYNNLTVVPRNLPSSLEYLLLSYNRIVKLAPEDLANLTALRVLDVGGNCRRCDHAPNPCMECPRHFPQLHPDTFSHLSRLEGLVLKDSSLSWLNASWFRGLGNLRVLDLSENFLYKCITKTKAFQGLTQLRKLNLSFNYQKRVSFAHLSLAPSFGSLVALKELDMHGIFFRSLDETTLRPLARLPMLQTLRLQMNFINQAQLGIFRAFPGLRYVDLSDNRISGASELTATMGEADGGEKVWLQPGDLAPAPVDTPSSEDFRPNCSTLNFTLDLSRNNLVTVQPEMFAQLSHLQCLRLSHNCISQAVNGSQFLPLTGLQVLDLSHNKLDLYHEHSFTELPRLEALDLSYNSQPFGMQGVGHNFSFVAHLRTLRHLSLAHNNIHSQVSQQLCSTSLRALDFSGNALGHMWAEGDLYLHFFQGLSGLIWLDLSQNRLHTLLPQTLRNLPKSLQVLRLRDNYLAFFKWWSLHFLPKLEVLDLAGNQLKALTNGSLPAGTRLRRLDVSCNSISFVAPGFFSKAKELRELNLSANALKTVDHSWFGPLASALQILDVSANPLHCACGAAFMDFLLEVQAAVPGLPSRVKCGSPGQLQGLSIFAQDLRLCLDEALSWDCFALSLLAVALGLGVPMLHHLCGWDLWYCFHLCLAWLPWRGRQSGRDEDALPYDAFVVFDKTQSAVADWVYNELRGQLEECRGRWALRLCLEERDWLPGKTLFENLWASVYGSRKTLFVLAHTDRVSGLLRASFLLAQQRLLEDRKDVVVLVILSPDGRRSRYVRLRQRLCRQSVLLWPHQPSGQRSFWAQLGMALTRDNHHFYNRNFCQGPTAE

A word on the IC50: it is the point on the concentration scale where inhibition reaches its midpoint. Turning to `COc1cc(-c2[nH]c3cnc(N4CC5(C4)CN(C4CCN(C(C)C)CC4)C5)c(F)c3c2C(C)C)cn2ncnc12` [Example 377], the IC50 on human TLR8 is 16 nM; against human TLR7, 16 nM; on human TLR9 it was 1410 nM.

For the molecule `COc1cc(-c2[nH]c3cnc(N4CC5(CN(C)C5)C4)c(F)c3c2C(C)C)cn2ncnc12` [Example 378], the IC50 at human TLR8 turned out to be 3.4 nM; against human TLR7, 6 nM; at human TLR9 it was 5110 nM.

For `CCN1CC2(C1)CN(c1ncc3[nH]c(-c4cc(OC)c5ncnn5c4)c(C(C)C)c3c1F)C2` [Example 379], the results for the IC50 at human TLR8, against human TLR7 and at human TLR9 were 2.3 nM, 4 nM and 3630 nM, respectively.

For the molecule `CCCN1CC2(C1)CN(c1ncc3[nH]c(-c4cc(OC)c5ncnn5c4)c(C(C)C)c3c1F)C2` [Example 380], the half-inhibitory concentration (IC50) on human TLR8 was 7.8 nM; on human TLR7, 5.6 nM; on human TLR9 it was 1480 nM.

Take `COc1cc(-c2[nH]c3cnc(N4CC5(C4)CN(C4CCC4)C5)c(F)c3c2C(C)C)cn2ncnc12` [Example 381]: the half-maximal inhibitory concentration (IC50) at human TLR8 was determined as 11 nM; against human TLR7, 9.9 nM; at human TLR9 it was 2580 nM.

With `COc1cc(-c2[nH]c3cnc(N4CCN(C5COC5)CC4)c(F)c3c2C(C)C)cn2ncnc12` [Example 382], the IC50 on human TLR8 was 18 nM; on human TLR7 it was 4.5 nM; at human TLR9, > 50000 nM.

On to `COc1cc(-c2[nH]c3cnc(N4CCN(CC5CCOCC5)CC4)c(F)c3c2C(C)C)cn2ncnc12` [Example 383], for which the values for the IC50 on human TLR8, on human TLR7 and at human TLR9 were 0.31 nM, 2.7 nM and 5390 nM, respectively.

`COc1cc(-c2[nH]c3cnc(N4CCN(C(C)C)CC4)c(F)c3c2C(C)C)cn2ncnc12` [Example 384]: the concentration for half-maximal inhibition (IC50) worked out at 0.55 nM on human TLR8, 0.96 nM at human TLR7 and 3260 nM on human TLR9.

As for `COc1cc(-c2[nH]c3cnc(N4CCN(CC5(C)COC5)CC4)c(F)c3c2C(C)C)cn2ncnc12` [Example 385], the figures for the IC50 on human TLR8, on human TLR7 and on human TLR9 were 1.4 nM, 4.1 nM and 42100 nM, respectively.

With `COc1cc(-c2[nH]c3cnc(N4CCN(C5CCN(C(C)C)CC5)CC4)c(F)c3c2C(C)C)cn2ncnc12` [Example 388], the results for the IC50 at human TLR8, against human TLR7 and at human TLR9 were 0.81 nM, 2.7 nM and 1890 nM, respectively.

For the molecule `CCN1CCN(c2ncc3[nH]c(-c4cc(OC)c5ncnn5c4)c(C(C)C)c3c2F)CC1` [Example 389], the values for the IC50 on human TLR8, on human TLR7 and at human TLR9 were 0.38 nM, 1.1 nM and 6160 nM, respectively.

For `COc1cc(-c2[nH]c3cnc(N4CCN(CC5CC5)CC4)c(F)c3c2C(C)C)cn2ncnc12` [Example 390], the IC50 was determined as 0.15 nM at human TLR8, 2.3 nM on human TLR7 and 4060 nM on human TLR9.

Regarding `COc1cc(-c2[nH]c3cnc(N4CCN(C5CCC5)CC4)c(F)c3c2C(C)C)cn2ncnc12` [Example 391], the IC50 was 0.9 nM on human TLR8, 1.4 nM at human TLR7 and 4050 nM on human TLR9.

As for `Cc1c(-c2[nH]c3cnc(N4CC5(CNC5)C4)c(F)c3c2C(C)C)cn2ncnc2c1C` [Example 392, 6-(4-fluoro-3-isopropyl-5-(2,6-diazaspiro[3.3]heptan-2-yl)-1H-pyrrolo[2,3-c]pyridin-2-yl)-7,8-dimethyl-[1,2,4]triazolo[1,5-a]pyridine], the concentration for half-maximal inhibition (IC50) was 13 nM at human TLR8, 24 nM on human TLR7 and 8840 nM at human TLR9.

As for `Cc1c(-c2[nH]c3cnc(N4CCNCC4)c(F)c3c2C(C)C)cn2ncnc2c1C` [Example 393], the values for the IC50 on human TLR8, against human TLR7 and on human TLR9 were 0.51 nM, 1.4 nM and 8730 nM, respectively.

`CNC(=O)CN1CC2(C1)CN(c1ncc3[nH]c(-c4cn5ncnc5c(C)c4C)c(C(C)C)c3c1F)C2` [Example 395, 2-(6-(2-(7,8-dimethyl-[1,2,4]triazolo[1,5-a]pyridin-6-yl)-4-fluoro-3-isopropyl-1H-pyrrolo[2,3-c]pyridin-5-yl)-2,6-diazaspiro[3.3]heptan-2-yl)-N-methylacetamide]: the results for the IC50 on human TLR8, against human TLR7 and on human TLR9 were 6.6 nM, 44 nM and 17500 nM, respectively.
